According to patent US12054475B2, “Substituted heterocycles as aldehyde dehydrogenase inhibitors” (KayoThera Inc., priority 2021, dated 2024):

Legend:
Assay type in all cases: biochemical
mALDH1a2 = mALDH1a2 (Mus musculus (Mouse), UniProt Q62148); assay: Aldh1a2 enzyme inhibition assay (recombinant enzyme, resorufin fluorescence)
Text: Recombinant enzyme and inhibitor added immediately before assay. Reaction rate measured by resorufin fluorescence.

mALDH1a3 = mALDH1a3 (Mus musculus (Mouse), UniProt Q9JHW9); assay: Aldh1a3 enzyme inhibition assay (recombinant enzyme, resorufin fluorescence); details: read-out: mAldh1a3 IC50
Protocol: (§1) Cells were resuspended in 10 mM […] pH 7.4, 10 mM KCl. […] Recombinant enzyme and inhibitor added immediately before assay. Reaction rate measured by resorufin fluorescence.

hALDH1a3 = hALDH1a3 (Homo sapiens (Human), UniProt P47895); assay: as above; details: read-out: hAldh1a3 IC50
Protocol: as §1

hALDH1a2 = hALDH1a2 (Homo sapiens (Human), UniProt O94788); assay: Aldh1a2 enzyme inhibition assay (recombinant enzyme, resorufin fluorescence)
Chain of hALDH1a2 (O94788 whole entry): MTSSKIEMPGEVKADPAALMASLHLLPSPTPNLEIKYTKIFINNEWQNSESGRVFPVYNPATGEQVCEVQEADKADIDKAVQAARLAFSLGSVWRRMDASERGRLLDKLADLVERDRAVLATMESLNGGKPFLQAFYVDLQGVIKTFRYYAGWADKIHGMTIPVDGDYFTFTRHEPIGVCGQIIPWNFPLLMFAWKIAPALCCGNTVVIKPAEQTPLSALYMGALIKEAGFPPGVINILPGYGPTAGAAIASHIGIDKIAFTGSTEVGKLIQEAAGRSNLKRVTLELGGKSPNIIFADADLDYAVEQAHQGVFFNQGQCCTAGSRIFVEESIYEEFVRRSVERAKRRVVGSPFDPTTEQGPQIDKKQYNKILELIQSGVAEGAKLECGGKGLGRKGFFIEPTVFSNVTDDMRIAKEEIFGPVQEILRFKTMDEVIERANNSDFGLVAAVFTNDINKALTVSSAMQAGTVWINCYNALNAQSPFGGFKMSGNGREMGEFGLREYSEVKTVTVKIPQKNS

Chain of mALDH1a2 (Q62148 whole entry): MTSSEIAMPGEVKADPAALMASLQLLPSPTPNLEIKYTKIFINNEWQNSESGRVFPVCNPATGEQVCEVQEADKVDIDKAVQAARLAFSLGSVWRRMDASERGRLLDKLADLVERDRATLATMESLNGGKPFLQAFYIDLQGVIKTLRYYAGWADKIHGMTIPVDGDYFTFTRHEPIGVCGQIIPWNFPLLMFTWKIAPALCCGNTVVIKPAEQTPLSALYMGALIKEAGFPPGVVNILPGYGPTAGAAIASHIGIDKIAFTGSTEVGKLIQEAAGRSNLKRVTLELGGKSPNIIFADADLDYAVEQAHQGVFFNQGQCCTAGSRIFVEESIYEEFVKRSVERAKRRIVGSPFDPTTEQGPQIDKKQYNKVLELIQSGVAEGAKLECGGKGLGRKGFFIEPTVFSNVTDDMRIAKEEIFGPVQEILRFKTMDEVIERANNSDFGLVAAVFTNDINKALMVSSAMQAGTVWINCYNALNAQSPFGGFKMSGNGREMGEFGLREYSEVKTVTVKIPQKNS
Chain of mALDH1a3 (Q9JHW9 whole entry): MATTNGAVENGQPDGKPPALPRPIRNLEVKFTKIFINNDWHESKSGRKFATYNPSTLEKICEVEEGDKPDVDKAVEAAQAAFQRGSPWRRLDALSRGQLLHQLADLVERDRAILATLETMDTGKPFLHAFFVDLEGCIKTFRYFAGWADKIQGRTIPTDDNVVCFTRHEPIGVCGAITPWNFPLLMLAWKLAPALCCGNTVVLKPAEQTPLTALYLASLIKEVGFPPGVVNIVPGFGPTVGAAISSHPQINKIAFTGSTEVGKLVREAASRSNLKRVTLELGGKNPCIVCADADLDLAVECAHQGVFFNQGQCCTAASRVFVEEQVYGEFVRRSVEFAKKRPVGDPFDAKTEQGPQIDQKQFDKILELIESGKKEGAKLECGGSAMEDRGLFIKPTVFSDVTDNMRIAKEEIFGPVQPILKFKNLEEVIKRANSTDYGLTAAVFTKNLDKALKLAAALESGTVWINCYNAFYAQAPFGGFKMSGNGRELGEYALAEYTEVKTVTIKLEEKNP
Chain of hALDH1a3 (P47895 whole entry): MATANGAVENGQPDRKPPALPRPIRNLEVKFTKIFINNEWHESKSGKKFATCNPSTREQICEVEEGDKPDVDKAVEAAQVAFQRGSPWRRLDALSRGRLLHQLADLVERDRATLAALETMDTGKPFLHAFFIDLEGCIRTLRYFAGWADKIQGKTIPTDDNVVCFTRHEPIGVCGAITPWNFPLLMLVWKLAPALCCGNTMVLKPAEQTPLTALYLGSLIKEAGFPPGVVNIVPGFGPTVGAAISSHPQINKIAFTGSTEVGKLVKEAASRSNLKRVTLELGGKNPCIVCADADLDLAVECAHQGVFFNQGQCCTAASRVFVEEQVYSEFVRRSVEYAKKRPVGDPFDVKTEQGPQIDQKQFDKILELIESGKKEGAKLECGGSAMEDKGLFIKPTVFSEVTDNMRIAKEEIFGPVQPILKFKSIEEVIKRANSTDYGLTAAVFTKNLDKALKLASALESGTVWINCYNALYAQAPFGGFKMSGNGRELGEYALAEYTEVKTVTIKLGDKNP

Cc1cc(NC(=O)c2ccnc3c2CCO3)cc2c1NC(=O)CC2 [Compound 152, N-(8-methyl-2-oxo-3,4-dihydro-1H-quinolin-6-yl)-2,3-dihydrofuro[2,3-b]pyridine-4-carboxamide]
IC50 (mALDH1a2): 824 nM | IC50 (mALDH1a3): 250 to 1000 nM | IC50 (hALDH1a3): 1000 to 5000 nM | IC50 (hALDH1a2): 807 nM

CCc1cnccc1C(=O)Nc1cc2c(c(F)c1F)NC(=O)CC2 [Compound 143, N-(7,8-difluoro-2-oxo-3,4-dihydro-1H-quinolin-6-yl)-3-ethyl-pyridine-4-carboxamide]
IC50 (mALDH1a2): 594 nM | IC50 (mALDH1a3): < 100 nM | IC50 (hALDH1a3): < 100 nM | IC50 (hALDH1a2): 674 nM

Cc1cc(Nc2cnc3ccccc3n2)cc2c1NC(=O)C(C)(C)C2 [Compound 161, 3,3,8-trimethyl-6-(quinoxalin-2-ylamino)-1,4-dihydroquinolin-2-one]
IC50 (mALDH1a2): 114 nM | IC50 (mALDH1a3): 250 to 1000 nM | IC50 (hALDH1a3): > 5000 nM | IC50 (hALDH1a2): 89 nM

CCc1cnc(Cl)cc1C(=O)Nc1cc(C)c2c(c1)CCC(=O)N2 [Compound 150, 2-chloro-5-ethyl-N-(8-methyl-2-oxo-3,4-dihydro-1H-quinolin-6-yl)pyridine-4-carboxamide]
IC50 (mALDH1a2): 131 nM | IC50 (mALDH1a3): < 100 nM | IC50 (hALDH1a3): < 100 nM | IC50 (hALDH1a2): 121 nM

Cc1cc(NC(=O)c2ccnc3c2CCN3)cc2c1NC(=O)CC2 [Compound 153, N-(8-methyl-2-oxo-3,4-dihydro-1H-quinolin-6-yl)-2,3-dihydro-1H-pyrrolo[2,3-b]pyridine-4-carboxamide]
IC50 (mALDH1a2): 362 nM | IC50 (mALDH1a3): 250 to 1000 nM | IC50 (hALDH1a3): 1000 to 5000 nM | IC50 (hALDH1a2): 492 nM

O=C1CCc2cc(NC(=O)c3ccncc3CC(F)(F)F)cc(Cl)c2N1 [Compound 168, N-(8-chloro-2-oxo-3,4-dihydro-1H-quinolin-6-yl)-3-(2,2,2-trifluoroethyl) pyridine-4-carboxamide]
IC50 (mALDH1a2): 92 nM | IC50 (hALDH1a2): 70 nM

CCc1cnccc1C(=O)Nc1cc(F)c2c(c1)CCC(=O)N2 [Compound 141, 3-ethyl-N-(8-fluoro-2-oxo-3,4-dihydro-1H-quinolin-6-yl)pyridine-4-carboxamide]
IC50 (mALDH1a2): 180 nM | IC50 (mALDH1a3): < 100 nM | IC50 (hALDH1a3): < 100 nM | IC50 (hALDH1a2): 289 nM

CCC1COCCN1C(=O)Nc1cc(C)c2c(c1)CCC(=O)N2 (racemic) [Compound 193]
IC50 (mALDH1a3): > 5000 nM | IC50 (hALDH1a3): > 5000 nM

CCc1cnccc1C(=O)Nc1cc2c(cc1C)NC(=O)CC2 [Compound 83]
IC50 (mALDH1a2): 3500 nM | IC50 (mALDH1a3): 1000 to 5000 nM | IC50 (hALDH1a3): 100 to 250 nM | IC50 (hALDH1a2): 9000 nM

CCc1cnccc1C(=O)Nc1cc2c(c3ccncc13)NC(=O)CC2 [Compound 145, 3-ethyl-N-(2-oxo-3,4-dihydro-1H-1,8-phenanthrolin-6-yl)pyridine-4-carboxamide]
IC50 (mALDH1a2): 172 nM | IC50 (mALDH1a3): < 100 nM | IC50 (hALDH1a3): < 100 nM | IC50 (hALDH1a2): 120 nM

CCc1cnccc1C(=O)Nc1cc(CC)c2c(c1)CCC(=O)N2 [Compound 144, 3-ethyl-N-(8-ethyl-2-oxo-3,4-dihydro-1H-quinolin-6-yl)pyridine-4-carboxamide]
IC50 (mALDH1a2): 462 nM | IC50 (mALDH1a3): < 100 nM | IC50 (hALDH1a3): < 100 nM | IC50 (hALDH1a2): 304 nM

CCc1nnccc1C(=O)Nc1cc(C)c2c(c1)CCC(=O)N2 [Compound 166, 3-ethyl-N-(8-methyl-2-oxo-3,4-dihydro-1H-quinolin-6-yl) pyridazine-4-carboxamide]
IC50 (mALDH1a2): > 10000 nM | IC50 (mALDH1a3): 250 to 1000 nM | IC50 (hALDH1a3): < 100 nM | IC50 (hALDH1a2): 1600 nM

CCc1cnccc1C(=O)Nc1cc(Cl)c2c(c1)CCC(=O)N2 [Compound 142, N-(8-chloro-2-oxo-3,4-dihydro-1H-quinolin-6-yl)-3-ethyl-pyridine-4-carboxamide]
IC50 (mALDH1a2): 63 nM | IC50 (mALDH1a3): < 100 nM | IC50 (hALDH1a3): < 100 nM | IC50 (hALDH1a2): 57 nM

CCc1cnccc1C(=O)Nc1cc2c(c(C)c1C)NC(=O)CC2 [Compound 147, N-(7,8-dimethyl-2-oxo-3,4-dihydro-1H-quinolin-6-yl)-3-ethyl-pyridine-4-carboxamide]
IC50 (mALDH1a2): 358 nM | IC50 (mALDH1a3): 250 to 1000 nM | IC50 (hALDH1a3): 100 to 250 nM | IC50 (hALDH1a2): 431 nM

CCc1cnccc1C(=O)Nc1ccc2c(c1)CCC(=O)N2 [Compound 9]
IC50 (mALDH1a2): 1110 nM | IC50 (mALDH1a3): 250 to 1000 nM | IC50 (hALDH1a3): < 100 nM | IC50 (hALDH1a2): 587 nM

O=C1CCc2cc(NC(=O)c3ccncc3CC(F)(F)F)ccc2N1 [Compound 53]
IC50 (mALDH1a2): 494 nM | IC50 (mALDH1a3): < 100 nM | IC50 (hALDH1a3): < 100 nM | IC50 (hALDH1a2): 374 nM

O=C1CCc2cc(NC(=O)c3ccncc3CC(F)(F)F)c(F)c(F)c2N1 [Compound 167, N-(7,8-difluoro-2-oxo-3,4-dihydro-1H-quinolin-6-yl)-3-(2,2,2-trifluoroethyl) pyridine-4-carboxamide]
IC50 (mALDH1a2): 815 nM | IC50 (mALDH1a3): < 100 nM | IC50 (hALDH1a3): < 100 nM | IC50 (hALDH1a2): 754 nM

Cc1cc(NC(=O)c2ccncc2CC2CC2)cc2c1NC(=O)CC2 [Compound 149, 3-(cyclopropylmethyl)-N-(8-methyl-2-oxo-3,4-dihydro-1H-quinolin-6-yl)pyridine-4-carboxamide]
IC50 (mALDH1a2): 118 nM | IC50 (mALDH1a3): < 100 nM | IC50 (hALDH1a3): < 100 nM

CCc1cnccc1C(=O)Nc1cc2c(cn1)NC(=O)CC2 [Compound 159, 3-ethyl-N-(2-oxo-3,4-dihydro-1H-1,7-naphthyridin-6-yl)pyridine-4-carboxamide]
IC50 (mALDH1a2): 3180 nM | IC50 (mALDH1a3): 250 to 1000 nM | IC50 (hALDH1a3): 250 to 1000 nM | IC50 (hALDH1a2): 2750 nM

CCc1cnccc1C(=O)Nc1cc(C#N)c2c(c1)CCC(=O)N2 [Compound 139, N-(8-cyano-2-oxo-3,4-dihydro-1H-quinolin-6-yl)-3-ethyl-pyridine-4-carboxamide]
IC50 (mALDH1a2): 1480 nM | IC50 (mALDH1a3): < 100 nM | IC50 (hALDH1a3): 100 to 250 nM | IC50 (hALDH1a2): 10000 nM

CCc1cnccc1C(=O)Nc1cc2c(c(C)c1F)NC(=O)CC2 [Compound 146, 3-ethyl-N-(7-fluoro-8-methyl-2-oxo-3,4-dihydro-1H-quinolin-6-yl)pyridine-4-carboxamide]
IC50 (mALDH1a2): 405 nM | IC50 (mALDH1a3): < 100 nM | IC50 (hALDH1a3): < 100 nM | IC50 (hALDH1a2): 356 nM

CCc1cnc(Cl)cc1C(=O)Nc1ccc2c(c1)CCC(=O)N2 [Compound 77]
IC50 (mALDH1a2): 333 nM | IC50 (hALDH1a2): 415 nM

2-ethyl-N-(8-methyl-2-oxo-3,4-dihydro-1H-quinolin-6-yl) piperazine-1-carboxamide [Compound 192]
IC50 (mALDH1a2): > 10000 nM | IC50 (mALDH1a3): > 5000 nM | IC50 (hALDH1a3): > 5000 nM | IC50 (hALDH1a2): > 10000 nM

O=C1CCc2cc(NC(=O)c3ccncc3CC(F)(F)F)c(F)cc2N1 [Compound 82]
IC50 (mALDH1a2): 941 nM | IC50 (mALDH1a3): 100 to 250 nM | IC50 (hALDH1a3): < 100 nM | IC50 (hALDH1a2): 620 nM

CCc1cnccc1C(=O)Nc1cnc2c(c1)CCC(=O)N2 [Compound 154, 3-ethyl-N-(7-oxo-6,8-dihydro-5H-1,8-naphthyridin-3-yl)pyridine-4-carboxamide]
IC50 (mALDH1a2): 8170 nM | IC50 (mALDH1a3): 250 to 1000 nM | IC50 (hALDH1a3): 1000 to 5000 nM | IC50 (hALDH1a2): 4750 nM

Cc1cc(NC(=O)c2ccncc2CC2CCC2)cc2c1NC(=O)CC2 [Compound 155]
IC50 (mALDH1a2): 1290 nM | IC50 (mALDH1a3): 1000 to 5000 nM | IC50 (hALDH1a3): 250 to 1000 nM | IC50 (hALDH1a2): 835 nM

CCn1cncc1C(=O)Nc1ccc2c(c1)CCC(=O)N2 [Compound 49]
IC50 (mALDH1a2): > 10000 nM | IC50 (mALDH1a3): > 5000 nM | IC50 (hALDH1a3): > 5000 nM | IC50 (hALDH1a2): > 10000 nM

O=C1CCc2cc(NC(=O)c3ccncc3CC3CC3)ccc2N1 [Compound 59]
IC50 (mALDH1a2): 487 nM | IC50 (mALDH1a3): < 100 nM | IC50 (hALDH1a3): < 100 nM | IC50 (hALDH1a2): 530 nM
